Measurements taken from patent US9346849B2, “Amino sugar-bound anti-cancerous noble metal complex” (NATIONAL UNIVERSITY CORPORATION NARA INSTITUTE OF SCIENCE …, priority 2012, dated 2016).

How the values were obtained:
Format in all cases: cell-based
MKN45 = experiment: Anticancer activity test (MTT viability), gastric cancer cell line MKN45; conditions: for IC50: MKN45 (n=4), drug incubation 48 hours, MTT
Experimental: (§1) 1. Gastric cancer cell lines MKN28 and MKN45 were individually seeded in 96-well plates in duplicate at 1×10^3 cells/100 μL/well (a medium (RPMI1640) containing 10% FBS was used) and incubated at 37° C. and 5% CO2 for 68 hours.
(§2) 2. A preparation made by mixing a drug (CDDP ([PtCl2(NH3)2]) or Pd-Oqn) with the medium was dispensed into each well, and thereafter incubated at 37° C. and 5% CO2 for 48 hours.
(§3) 3. MTT was dispensed into each well at 10 μL/well, followed by incubation at 37° C. for 4 hours. Thereafter, the absorbance at 450 nm was measured with a microplate reader, and the viability was calculated.

MKN28 = experiment: Anticancer activity test (MTT viability), gastric cancer cell line MKN28; conditions: MKN28 (n=4), drug incubation 48 hours
Experimental: as §1, §2, §3

Panc-1 = experiment: Anticancer activity test (MTT viability), pancreatic cancer cell line Panc-1; conditions: for IC50: Panc-1 (n=4), drug incubation 48 hours, MTT
Experimental: 1. A pancreatic cancer cell line (Panc-1) was seeded in 96-well plates in duplicate at 1×10^3 cells/100 μL/well (a medium (RPMI1640) containing 10% FBS was used) and incubated at 37° C. and 5% CO2 for 68 hours.
as §2, §3

N.N.[Cl][Pt][Cl] [CDDP, [PtCl2(NH3)2], reference compound]
IC50 (MKN45): 28.2 µM | IC50 (MKN28): 87.2 µM | IC50 (Panc-1): 124 µM

[Pd(GlcN=Oqn)Cl] [Pd-Oqn]
IC50 (MKN45): 11.7 µM | anticancer activity (IC50) relative to cisplatin (MKN45; stomach cancer cells MKN45 and MKN28 together, versus cisplatin): about two to five times higher | IC50 (MKN28): 17.5 µM | IC50 (Panc-1): 63.1 µM | anticancer activity (IC50) relative to cisplatin (Panc-1; Panc-1, versus cisplatin): about two times higher
